The text below walks through data of US9884037B2, “Pharmaceutical composition containing 8 triglycerides, and preparations and use thereof” (ZHEJIANG KANGLAITE GROUP CO., LTD., priority 2014, dated 2018).

Converted amounts (≈) assume the structure as drawn.

Experiment [1] concerns IL-2. Briefly: Production of IL-2 in mice bearing cancer (L1210), IL-2 dependent CTLL cell strain. In kind it is in vivo, DBA/2 mice. The settings on record: 20 mg/kg, iv × 7, mice suffering from L1210 leukemia. How it is done: Each of 60 DBA/2 mice was inoculated subcutaneously with 1×10^4 L1210 leukemia cells of mice. Next day, the mice were grouped randomly into 6 groups (10 mice per group): Lentinan 20 mg/kg, the injection of the invention (6.25 ml/kg, 12.5 ml/kg and 25 ml/kg), solvent control and NS control. Animals were administered, i.v., for 7 days, then sacrificed. Spleens were picked up in aseptic condition. Splenocytes were prepared and adjusted into 1×10^7/ml. To each well of a 24 well plate were added splenocytes cells (2 ml) and Con A (5 μg/ml). After the plate was incubated in a 37° C. incubator under 5% CO2 for 24 h, the supernate was collected. The activity of IL-2 was determined in IL-2 dependent CTLL cell strain by using the method of ^3H-TdR incorporation.

In experiment [2] the test system is NK cells. Briefly: Activity of NK cells in mice bearing cancer (L1210). In kind it is in vivo, DBA/2 mice. The settings on record: 20 mg/kg, iv × 7, mice bearing L1210. On the procedure:
Each of 60 DBA/2 mice was inoculated subcutaneously with 1×10^4 L1210 leukemia cells of mice. Next day, the mice were grouped randomly into 6 groups (10 mice per group): Lentinan 20 mg/kg (positive control), the injection of the invention (6.25 ml/kg, 12.5 ml/kg and 25 ml/kg), solvent control and NS control. Animals were administered, i.v., for 7 days, then sacrificed. Spleens were picked up in aseptic condition. Splenocytes were prepared and adjusted into 1×10^6/ml. The activity of NK cells was detected by using the inhibition on ^3H-TdR incorporation. To wells of a 96 well microplate were added splenocytes cells (effector cells) 100 μl/well, YAC-1 cells (target cells, 1×10^4 cells/ml) 100 μl/well and ^3H-TdR 0.5 μci/well, in triplicate. After being incubated in a 37° C. incubator under 5% CO2 for 24 h, cells were collected, and CPM values were determined. The specific percentage inhibition (Pi), indicating the activity of NK cells, was calculated according to the above formula.

Experiment [3] has as its system Splenocytes. Briefly: Splenic lymphopoiesis induced by ConA in mice in vitro (3H-TdR incorporation). The conditions noted are these: 100 μl. In kind it is cell-based, C57BL/6 mice. How it is done:
Spleens were picked up from C57BL/6 mice in aseptic condition. Splenocytes were separated and the concentration of cells was adjusted to 1×10^7 cells/ml with RPMI 1640+15% FCS medium. The experiment groups were as follows: the injection of the invention in four concentrations, lentinan (positive control group) in four concentrations, corresponding solvent (blank control I) and medium (blank control II). 100 μl Cells, 100 μl solution of drug/control and 50 μl ConA were added in each well in triplicate. The 96 well microplate was incubated in a 37° C. incubator under 5% CO2 for 48 h. ^3H-TdR (0.5 μci/well) was added and the incubation was continued for 20 h. Cells were collected, and CPM values were determined in a liquid scintillation counter and compared with control groups. It is shown in the results (table 3) that the injection of the invention, as same as lentinan, has obviously facilitated the splenic lymphopoiesis in mice in vitro and the effect is linear dependent to the concentration.

The subject of experiment [4] is NK cells. Briefly: Activity of natural killer cells (NK cells) in mice in vitro (inhibition on 3H-TdR incorporation, YAC-1 target cells). In kind it is cell-based, C57BL/6 mice. The conditions noted are these: 100 μl; for CPM (x ± SD): Splenocytes:YAC-1=100:1, 24 h. How it is done: Method: The activity of NK cells were detected by the inhibition on ^3H-TdR incorporation.
Spleens were picked up from C57BL/6 mice in aseptic condition. Splenocytes, as effector cells, were adjusted to 1×10^6 cells/ml. YAC-1 cells, target cells, which have been cultured for 24 h, were adjusted to 1×10^4 cells/ml. The cells were added into wells of a 96 well microplate (100 μl/well). The experiment groups were as follows: the injection of the invention in four concentrations, lentinan (positive control group) in four concentrations, corresponding solvent (blank control I) and medium (blank control II). To each well of a 96 well microplate were added cells (Splenocytes: YAC-1=100:1) (100 μl), test sample (100 μl) and ^3H-TdR 0.5 μci/well. After being incubated in a 37° C. incubator under 5% CO2 for 24 h, cells were collected, and CPM values were determined. The specific percentage inhibition (Pi), indicating the activity of NK cells, was calculated according to the formula: Pi=(1−CPMExp./CPMcont.)×100%

Experiment [5] relates to splenocytes of mice bearing L1210 leukemia cells. Briefly: Splenic lymphopoiesis in mice bearing L1210 leukemia cells. Type of experiment: in vivo, DBA/2 mice. The settings on record: 20 mg/kg, iv × 7, mice bearing L1210. On the procedure: Each of 60 DBA/2 mice was inoculated subcutaneously with 1×10^4 L1210 leukemia cells of mice. Next day, the mice were grouped randomly into 6 groups (10 mice per group): Lentinan 20 mg/kg, the injection of the invention (6.25 ml/kg, 12.5 ml/kg and 25 ml/kg), solvent control and NS control. Animals were administered, i.v., for 7 days, then sacrificed. Spleens were picked up in aseptic condition. Spleens were homogenized and splenocytes were counted and adjusted into 1×10^7/ml. Cells (100 μl/well) and medium (100 μl/well) were added into wells of a 96 well microplate in triplicate. The 96 well microplate was incubated in a 37° C. incubator under 5% CO2 for 48 h. Then, ^3H-TdR (0.5 μci/well) was added and the incubation was continued for 20 h. Cells were collected, and CPM values were determined and compared with control groups. […] Lentinan has also shown immuno-enhancement effect.

The subject of experiment [6] is SMMC-7721 (human hepatic cancer cells). In words: Inhibition on human tumor cell lines in MTT method in vitro. Type of experiment: cell-based. The settings on record: SMMC-7721, MTT, 48 h. The source says: (§1) Experimental Materials and the Preparation Thereof: • (1) Cell lines: PANC-1 (human pancreatic cancer cells), SKOV3 (human ovarian cancer cells), MCF-7 (human breast cancer cells), Bcap-37 (human breast cancer cells), SMMC-7721 (human hepatic cancer cells), HepG-2 (human hepatic cancer cells), A549 (human lung cancer cells) and H460 (human lung cancer cells), storaged and passaged maintainably in Research and Evaluation Center for Pharmacology, Shanghai Institute of Pharmaceutical Industry; • (2) DMEM complete medium supplied with 10% newborn calf serum (GIBCO BRL), 1% of penicillin (100 U/mL)+streptomycin (100 μg/mL); • (3) 0.25% trypsin solution, purchased from Invitrogen Corp. and storaged at −20° C.; • (4) Phosphate buffer (PBS): NaCl 8 g, KCl 0.2 g, Na2HPO4 1.15 g and KH2PO4 0.2 g, dissolved in 1 L double-distilled water and autoclaved at 121° C. for 20 min, then storaged at 4° C.; • (5) MTT (AMRESCO) solution: 5 mg/ml in PBS; • (6) Formazan crystal dissolving solution: SDS 10 g, isobutanol 5 ml and concentrated hydrochloric acid 0.1 ml, dissolved in 100 ml of deionized double distilled water.
(§2) The inhibition effects of samples on the above-mentioned cell lines were detected by using MTT method. The specific procedures were as follows:
(§3) (1) Cell culture: (a) Storaged cells were taken out from the liquid nitrogen, thawed quickly in a 37° C. water bath, then aseptically transferred into 6 ml of cellular medium in a 10 ml centrifugal tube, and centrifuged at 1000 rpm for 5 min. The supernatant was discarded, then the precipitated cells were re-suspensed in 5-6 ml cellular media by pipetting and transferred into a flask in a 37° C. incubator for cell culture; (b) Next day, the flask was taken out from the incubator and the used medium was discarded, then the cells were incubated in 5-6 ml fresh medium in the 37° C. incubator; (c) On the third day, the flask was taken out from the incubator and the used medium was discarded, then 2-3 ml of PBS (pH7.4) was added into the flask with rocking for cleaning it and the used PBS was discarded. Such a cellular cleaning step was repeated once again. 3-5 drops of 0.25% trypsin solution were added into the flask with sloshing, thus well-distributed in it. The flask was capped and placed in a 37° C. incubator for about 3 min, and the separation of cells from the flask wall was observed under the microscope. […]
(§4) (4) Cells in a logarithmic growth stage were trypsinized and washed, then re-suspended in the medium containing 10% calf serum. The number of living cells was counted in Trypan blue dye exclusion method and cell suspensions were adjusted into a density of 2×10^5 cell/ml. […]
Background: Formazan colour is commonly taken as a measure of viable cells.

Experiment [7] relates to H460 (human lung cancer cells). Described as above. Type of experiment: cell-based. The settings on record: NCI-H460, 48 h.
Source text: as §1, §2, §3, §4

The subject of experiment [8] is PANC-1 (human pancreatic cancer cells). The description is as above. The settings on record: PANC-1, MTT, 48 h. Type of experiment: cell-based.
Source text: as §1, §2, §3, §4

Experiment [9] deals with Bcap-37 (human breast cancer cells). Described as above. In kind it is cell-based. The conditions noted are these: Bcap37, Bcap-37, MTT, 48 h.
Source text: as §1, §2, §3, §4

Turning to Lentinan, the “CPM (x ± SD) (production of IL-2)” value in [1] is 2750 ± 123 CPM. Also, the “CPM (x ± SD)” value in [2] is 5660 ± 260 CPM; in [3] ((1:1) dilution) it was 7700 ± 747 CPM; in experiment [3] ((1:2) dilution), 11025 ± 1133 CPM; in experiment [3] ((1:4) dilution), 11555 ± 1279 CPM; in experiment [3] ((stock solution)), 7420 ± 957 CPM; in experiment [4] ((1:1) dilution), 8130 ± 930 CPM. Further, the “CPM (x ± SD)” value in experiment [4] ((1:2) dilution) is recorded as 7892 ± 995 CPM; in [4] ((1:4) dilution), 5544 ± 85 CPM; in experiment [4] ((stock solution)) it was 8625 ± 1135 CPM; in experiment [5] it was 7410 ± 770 CPM. Besides, the “Pi (%) (activity of NK cells)” value in experiment [2] came out at 54.5%. Besides, the “Pi % (specific percentage inhibition, activity of NK cells)” value in experiment [4] ((1:1) dilution) was 33.5%; in experiment [4] ((1:2) dilution), 35.5%; in experiment [4] ((1:4) dilution), 54.5%; in experiment [4] ((stock solution)) it was 29.5%.
By IC50 is commonly meant the concentration needed to halve the response being measured. With `CC(=O)O[C@H]1C(=O)[C@@]2(C)[C@H]([C@H](OC(=O)c3ccccc3)[C@]3(O)C[C@H](OC(=O)[C@H](O)[C@@H](NC(=O)c4ccccc4)c4ccccc4)C(C)=C1C3(C)C)[C@]1(OC(C)=O)CO[C@@H]1C[C@@H]2O` [Taxol], the IC50 in experiment [6] stood at 0.41 µg/mL (≈ 0.48 µM); in experiment [7], 0.49 µg/mL (≈ 0.574 µM); in [8], 0.44 µg/mL (≈ 0.515 µM); in experiment [9], 0.28 µg/mL (≈ 0.328 µM).
